For orientation: Kd means the concentration at which binding is half-saturated. Low values mean tighter binding, high ones weaker binding. The term IC50 denotes the point on the concentration scale where inhibition reaches its midpoint.

Data on 20 compounds can be found in patent publication US10087187B2, “Imidazopyridazine derivatives as PI3KB inhibitors” (Janssen Pharmaceutica NV, priority 2014, dated 2018).

The target of one assay is MTOR_h (Homo sapiens (Human), UniProt P42345). In words: KINOMEscan enzyme binding assay, MTOR. As to conditions: DiscoveRx. The procedure: (§1) Enzyme Binding Assays (KINOMEscan®) Kinase enzyme binding affinities of compounds disclosed herein were determined using the KINOMEscan technology performed by DiscoveRx Corporation, San Diego, Calif., USA (www.kinomescan.com).
Assay [1] has as its system Akt phosphorylated at Ser473 in PC-3 cells. In words: Cellular assay: phosphorylation of Akt (Ser473) in PC-3 cells, MSD ELISA. Format: cell-based. The conditions noted are these: 60 min incubation with compound, read-out: IC50 pAkt_S473. The essentials: (§2)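 PC-3 cells cultured 24 h in DMEM/10% FCS were exposed to compound for 60 min at 37° C, with 0.3% DMSO. Lysates were analysed by MSD electrochemiluminescent sandwich ELISA using phospho-Ser473 or phospho-Thr308 capture and anti-total Akt detection antibodies. IC50 was derived by nonlinear sigmoidal fitting of % inhibition over five concentrations.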

Assay [2] has as its system Akt phosphorylated at Thr308 in PC-3 cells. In words: Cellular assay: phosphorylation of Akt (Thr308) in PC-3 cells, MSD ELISA. The conditions noted are these: 60 min incubation with compound, read-out: IC50 pAkt_Thr308. Format: cell-based. The essentials:
as §2
On the technique in general: In an ELISA, binding on a coated surface is turned into a signal by an enzyme label.

The next assay has as its target PIK3Cβ_h (Homo sapiens (Human), UniProt P42338). Put plainly: KINOMEscan enzyme binding assay, PIK3Cβ. The conditions noted are these: DiscoveRx. The procedure:
(§3) Enzyme Binding Assays (KINOMEscan®) Kinase enzyme binding affinities of compounds disclosed herein were determined using the KINOMEscan technology performed by DiscoveRx Corporation, San Diego, Calif., USA (www.kinomescan.com). Table A reports the obtained Kd values (nM), with the Kd being the inhibitor binding constant: […]

Another assay addresses PIK3Cδ_h (Homo sapiens (Human), UniProt O00329). In words: KINOMEscan enzyme binding assay, PIK3Cδ. As to conditions: DiscoveRx. On the procedure:
as §3

The next assay concerns the target PIK3Cγ_h (Homo sapiens (Human), UniProt P48736). In words: KINOMEscan enzyme binding assay, PIK3Cγ. As to conditions: DiscoveRx. On the procedure:
as §1

Another assay deals with PIK3Cα_h (Homo sapiens (Human), UniProt P42336). Put plainly: KINOMEscan enzyme binding assay, PIK3Cα. As to conditions: DiscoveRx. The procedure: as §1
Chain of PIK3Cα_h (P42336 whole entry): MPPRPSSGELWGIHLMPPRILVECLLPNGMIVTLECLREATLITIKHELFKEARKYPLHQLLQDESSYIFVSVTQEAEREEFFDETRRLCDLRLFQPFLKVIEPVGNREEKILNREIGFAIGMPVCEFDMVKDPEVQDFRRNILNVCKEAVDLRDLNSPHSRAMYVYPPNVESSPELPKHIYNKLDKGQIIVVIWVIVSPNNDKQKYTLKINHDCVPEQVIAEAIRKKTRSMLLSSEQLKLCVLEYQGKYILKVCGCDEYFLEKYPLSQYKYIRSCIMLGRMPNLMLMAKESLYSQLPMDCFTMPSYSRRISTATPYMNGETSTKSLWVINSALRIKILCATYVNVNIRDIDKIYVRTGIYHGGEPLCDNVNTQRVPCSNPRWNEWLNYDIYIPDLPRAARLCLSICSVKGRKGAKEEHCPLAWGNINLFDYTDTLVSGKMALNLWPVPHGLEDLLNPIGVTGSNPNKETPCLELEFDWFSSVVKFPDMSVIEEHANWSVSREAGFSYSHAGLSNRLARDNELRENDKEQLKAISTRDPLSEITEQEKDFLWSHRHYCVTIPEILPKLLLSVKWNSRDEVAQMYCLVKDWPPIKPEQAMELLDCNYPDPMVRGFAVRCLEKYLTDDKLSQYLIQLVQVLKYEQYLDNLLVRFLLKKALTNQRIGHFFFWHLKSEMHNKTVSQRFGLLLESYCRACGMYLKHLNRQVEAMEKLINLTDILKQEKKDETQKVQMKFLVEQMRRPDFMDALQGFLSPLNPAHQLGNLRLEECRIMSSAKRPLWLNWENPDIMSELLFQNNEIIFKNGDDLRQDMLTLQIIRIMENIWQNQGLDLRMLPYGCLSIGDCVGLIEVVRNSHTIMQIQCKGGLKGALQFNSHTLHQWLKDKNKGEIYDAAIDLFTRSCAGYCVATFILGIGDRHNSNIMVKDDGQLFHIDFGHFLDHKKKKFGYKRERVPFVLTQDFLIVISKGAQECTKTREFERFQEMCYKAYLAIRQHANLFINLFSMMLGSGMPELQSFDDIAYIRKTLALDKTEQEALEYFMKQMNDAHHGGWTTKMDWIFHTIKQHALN

Structures are written as SMILES. Where two headings read alike, the source gives them in different places. Bounds are passed on as bounds.

Chain of PIK3Cδ_h (O00329 whole entry): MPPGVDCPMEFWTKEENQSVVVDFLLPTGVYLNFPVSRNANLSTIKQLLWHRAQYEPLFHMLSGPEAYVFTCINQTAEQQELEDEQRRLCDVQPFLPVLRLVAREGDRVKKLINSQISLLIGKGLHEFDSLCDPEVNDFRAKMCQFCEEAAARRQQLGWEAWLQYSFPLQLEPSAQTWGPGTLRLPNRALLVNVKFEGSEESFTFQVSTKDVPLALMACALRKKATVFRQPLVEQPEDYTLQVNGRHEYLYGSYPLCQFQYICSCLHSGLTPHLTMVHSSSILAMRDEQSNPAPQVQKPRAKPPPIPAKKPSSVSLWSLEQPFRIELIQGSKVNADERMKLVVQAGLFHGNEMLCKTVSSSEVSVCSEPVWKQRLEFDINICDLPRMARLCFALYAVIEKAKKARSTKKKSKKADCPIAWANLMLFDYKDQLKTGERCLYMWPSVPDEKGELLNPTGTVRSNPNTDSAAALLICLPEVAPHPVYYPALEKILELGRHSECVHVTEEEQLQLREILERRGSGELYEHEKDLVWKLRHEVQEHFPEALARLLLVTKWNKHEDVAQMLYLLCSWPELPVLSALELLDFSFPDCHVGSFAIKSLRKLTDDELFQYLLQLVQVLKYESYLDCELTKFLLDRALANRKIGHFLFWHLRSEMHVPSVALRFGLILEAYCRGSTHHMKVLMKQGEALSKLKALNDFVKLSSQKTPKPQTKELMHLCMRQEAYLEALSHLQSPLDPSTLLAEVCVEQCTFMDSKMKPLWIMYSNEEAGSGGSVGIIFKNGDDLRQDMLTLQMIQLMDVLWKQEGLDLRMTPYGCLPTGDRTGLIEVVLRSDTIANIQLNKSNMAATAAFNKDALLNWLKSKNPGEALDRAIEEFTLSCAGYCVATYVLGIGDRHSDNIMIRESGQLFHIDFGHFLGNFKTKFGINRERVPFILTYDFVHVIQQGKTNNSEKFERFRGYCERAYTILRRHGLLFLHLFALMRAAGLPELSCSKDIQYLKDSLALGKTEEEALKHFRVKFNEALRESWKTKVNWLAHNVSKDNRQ
Chain of PIK3Cβ_h (P42338 whole entry): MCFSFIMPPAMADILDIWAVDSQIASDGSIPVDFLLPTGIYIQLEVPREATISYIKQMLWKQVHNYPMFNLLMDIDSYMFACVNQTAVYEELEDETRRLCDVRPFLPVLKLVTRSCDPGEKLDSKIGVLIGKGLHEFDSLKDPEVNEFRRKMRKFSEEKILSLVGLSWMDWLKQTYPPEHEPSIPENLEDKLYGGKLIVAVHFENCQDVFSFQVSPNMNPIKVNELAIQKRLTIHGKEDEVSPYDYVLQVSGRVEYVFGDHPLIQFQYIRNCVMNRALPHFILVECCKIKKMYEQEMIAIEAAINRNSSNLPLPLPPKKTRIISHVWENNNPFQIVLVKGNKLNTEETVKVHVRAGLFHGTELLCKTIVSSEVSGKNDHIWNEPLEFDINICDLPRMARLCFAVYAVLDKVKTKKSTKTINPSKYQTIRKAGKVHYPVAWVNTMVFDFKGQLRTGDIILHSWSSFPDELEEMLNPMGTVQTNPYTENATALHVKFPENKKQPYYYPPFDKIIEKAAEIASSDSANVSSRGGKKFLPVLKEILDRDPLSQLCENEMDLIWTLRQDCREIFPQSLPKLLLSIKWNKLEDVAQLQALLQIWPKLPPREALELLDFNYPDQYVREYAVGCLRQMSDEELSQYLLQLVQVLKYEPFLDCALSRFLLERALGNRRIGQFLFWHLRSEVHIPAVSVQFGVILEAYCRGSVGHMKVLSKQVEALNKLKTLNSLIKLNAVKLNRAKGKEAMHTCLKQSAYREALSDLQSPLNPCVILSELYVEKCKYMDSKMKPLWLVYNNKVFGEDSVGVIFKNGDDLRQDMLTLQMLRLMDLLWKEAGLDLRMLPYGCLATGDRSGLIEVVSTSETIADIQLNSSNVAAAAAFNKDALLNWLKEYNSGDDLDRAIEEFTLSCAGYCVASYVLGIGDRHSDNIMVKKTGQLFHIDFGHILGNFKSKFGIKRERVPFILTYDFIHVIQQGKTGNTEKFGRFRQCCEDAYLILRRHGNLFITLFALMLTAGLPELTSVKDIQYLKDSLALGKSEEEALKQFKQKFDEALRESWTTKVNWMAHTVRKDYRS
Chain of PIK3Cγ_h (P48736 whole entry): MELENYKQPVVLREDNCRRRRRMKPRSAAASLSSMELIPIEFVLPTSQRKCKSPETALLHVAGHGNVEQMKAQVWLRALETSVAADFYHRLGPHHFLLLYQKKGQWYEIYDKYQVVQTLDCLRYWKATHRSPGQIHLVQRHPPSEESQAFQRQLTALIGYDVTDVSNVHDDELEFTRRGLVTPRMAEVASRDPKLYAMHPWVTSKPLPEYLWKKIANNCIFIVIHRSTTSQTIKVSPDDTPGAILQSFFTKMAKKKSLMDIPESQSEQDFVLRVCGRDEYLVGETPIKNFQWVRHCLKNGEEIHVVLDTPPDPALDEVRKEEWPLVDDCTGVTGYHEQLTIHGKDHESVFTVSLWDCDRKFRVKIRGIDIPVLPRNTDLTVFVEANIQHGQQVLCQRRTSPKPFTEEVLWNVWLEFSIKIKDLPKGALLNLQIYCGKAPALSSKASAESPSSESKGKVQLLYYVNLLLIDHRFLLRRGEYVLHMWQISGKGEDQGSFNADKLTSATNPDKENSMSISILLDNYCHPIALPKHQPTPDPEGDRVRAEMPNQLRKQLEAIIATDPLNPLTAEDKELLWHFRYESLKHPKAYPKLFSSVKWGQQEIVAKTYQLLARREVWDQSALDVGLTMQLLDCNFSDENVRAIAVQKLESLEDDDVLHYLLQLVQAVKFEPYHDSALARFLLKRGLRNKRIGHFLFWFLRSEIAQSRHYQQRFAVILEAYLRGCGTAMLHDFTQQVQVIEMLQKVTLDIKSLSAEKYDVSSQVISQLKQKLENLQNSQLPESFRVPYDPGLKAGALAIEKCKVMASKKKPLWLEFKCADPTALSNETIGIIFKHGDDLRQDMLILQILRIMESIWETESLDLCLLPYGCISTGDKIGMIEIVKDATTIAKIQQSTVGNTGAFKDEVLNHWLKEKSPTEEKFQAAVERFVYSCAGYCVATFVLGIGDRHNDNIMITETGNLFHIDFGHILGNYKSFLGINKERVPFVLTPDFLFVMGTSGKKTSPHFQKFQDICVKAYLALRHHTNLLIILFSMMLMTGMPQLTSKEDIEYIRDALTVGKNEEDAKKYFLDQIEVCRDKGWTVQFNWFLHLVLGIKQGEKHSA

For the compound `Cc1cccc(Nc2c(C)nc3c(N)cc(N4CCOCC4)nn23)c1C1CCNCC1` [Compound 60], the Kd was more than 30200 nM on MTOR_h; 0.2 nM on PIK3Cβ_h; 16 nM at PIK3Cδ_h; 9770 nM at PIK3Cγ_h; 7240 nM on PIK3Cα_h. Besides, the IC50 in assay [1] (Homo sapiens, PC-3, 1 h) is 219 nM; in assay [2] (Homo sapiens, PC-3, 1 h), approximately 148 nM.
With `CCc1c(F)cccc1Cc1c(CO)nc2c(N)cc(N3CCOCC3)nn12` [Compound 99], the Kd at MTOR_h stood at 1620 nM; at PIK3Cβ_h, 8.3 nM; on PIK3Cδ_h it was 832 nM; on PIK3Cγ_h, 3310 nM; on PIK3Cα_h, 10500 nM. Also, the IC50 in assay [1] (Homo sapiens, PC-3, 1 h) was 257 nM; in assay [2] (Homo sapiens, PC-3, 1 h) it was 200 nM.
Take `Cc1nc2c(N)cc(N3CCOCC3)nn2c1Nc1cccc(F)c1CN1CCOCC1` [Compound 63]: the Kd at MTOR_h came to 3160 nM; at PIK3Cβ_h it was 2.2 nM; at PIK3Cδ_h, 42 nM; on PIK3Cγ_h it was 20000 nM; at PIK3Cα_h it was 4170 nM. Further, the IC50 in assay [1] (Homo sapiens, PC-3, 1 h) was determined as 138 nM; in assay [2] (Homo sapiens, PC-3, 1 h), 96 nM.
Consider `Cc1nc2c(-c3c[nH]cn3)cc(N3CCOCC3)nn2c1Nc1cccc(F)c1C` [Compound 50], for which the equilibrium dissociation constant (Kd) at MTOR_h amounted to 776 nM; at PIK3Cβ_h, 1.3 nM; on PIK3Cδ_h, 33 nM; on PIK3Cγ_h, 1260 nM; on PIK3Cα_h, 537 nM. The IC50 in assay [1] (Homo sapiens, PC-3, 1 h) is 60 nM; in assay [2] (Homo sapiens, PC-3, 1 h), 38 nM.
As to `Cc1c(Cc2c(C(C)O)nc3c(N)cc(N4CCOCC4)nn23)cccc1C(F)(F)F` (centres unmarked) [Compound 32], the dissociation constant Kd on MTOR_h was found to be 22400 nM; at PIK3Cβ_h, 1.8 nM; on PIK3Cδ_h it was 355 nM; on PIK3Cγ_h it was 12000 nM; on PIK3Cα_h it was 14800 nM. Also, the IC50 in assay [1] (Homo sapiens, PC-3, 1 h) amounted to 87 nM; in assay [2] (Homo sapiens, PC-3, 1 h) it was 35 nM.
As to `Cc1nc2c(N)cc(N3CCOCC3)nn2c1Nc1cccc(C(F)(F)F)c1C` [Compound 33], the equilibrium dissociation constant (Kd) on MTOR_h turned out to be 20300 nM; on PIK3Cβ_h it was 6 nM; at PIK3Cδ_h, 171 nM; on PIK3Cγ_h it was 11400 nM; at PIK3Cα_h, 5130 nM. Besides, the half-inhibitory concentration (IC50) is 12 nM in assay [1] (Homo sapiens, PC-3, 1 h) and 17 nM in assay [2] (Homo sapiens, PC-3, 1 h).
`Cc1c(Cc2c(COC(=O)C(C)N)nc3c(N)cc(N4CCOCC4)nn23)cccc1C(F)(F)F` (centres unmarked) [Compound 79]: the Kd is 8910 nM on MTOR_h; 0.8 nM at PIK3Cβ_h; 120 nM at PIK3Cδ_h; 17400 nM at PIK3Cγ_h; 8710 nM on PIK3Cα_h. In addition, the figures for the IC50 in assay [1] and in assay [2] were 27 nM and 45 nM, respectively.
Turning to `Cc1c(Nc2c(CO)nc3c(C(N)=O)cc(N4CCOCC4)nn23)cccc1C(F)(F)F` [Compound 37], the Kd was 3240 nM on MTOR_h; 2.2 nM at PIK3Cβ_h; 214 nM on PIK3Cδ_h; 759 nM on PIK3Cγ_h; 575 nM at PIK3Cα_h. For the same compound, the half-maximal inhibitory concentration (IC50) in assay [1] (Homo sapiens, PC-3, 1 h) is 11 nM; in assay [2] (Homo sapiens, PC-3, 1 h) it was 20 nM.
In the case of `CC(=O)NCc1nc2c(-c3ncc[nH]3)cc(N3CCOCC3)nn2c1Cc1cccc(C(F)(F)F)c1C` [Compound 18], the dissociation constant (Kd) at MTOR_h was more than 30200 nM; on PIK3Cβ_h, 2 nM; at PIK3Cδ_h it was 59 nM; at PIK3Cγ_h it was more than 30200 nM; at PIK3Cα_h, more than 30200 nM. In addition, the half-inhibitory concentration (IC50) in assay [1] (Homo sapiens, PC-3, 1 h) was 33 nM; in assay [2] (Homo sapiens, PC-3, 1 h), 11 nM.
With `Cc1nc2c(C(=O)O)cc(N3CCOCC3)nn2c1Cc1cccc(Cl)c1C` [Compound 13], the Kd at MTOR_h turned out to be 9550 nM; at PIK3Cβ_h it was 0.5 nM; on PIK3Cδ_h, 56 nM; at PIK3Cγ_h, 3550 nM; on PIK3Cα_h, 525 nM. Besides, the IC50 in assay [1] (Homo sapiens, PC-3, 1 h) was more than 513 nM; in assay [2] (Homo sapiens, PC-3, 1 h) it was approximately 263 nM.
On to `Cc1nc2c(-c3cnc[nH]3)cc(N3CCOCC3)nn2c1Cc1cccc(C(F)(F)F)c1C` [Compound 5], for which the Kd at MTOR_h turned out to be 2400 nM; on PIK3Cβ_h it was 6 nM; at PIK3Cδ_h it was 316 nM; on PIK3Cγ_h, 10200 nM; on PIK3Cα_h it was 617 nM. Besides, the IC50 in assay [1] (Homo sapiens, PC-3, 1 h) was approximately 59 nM; in assay [2] (Homo sapiens, PC-3, 1 h) it was approximately 48 nM.
Consider `Cc1nc2c(-c3ccn[nH]3)cc(N3CCOCC3)nn2c1Cc1cccc(C(F)(F)F)c1C` [Compound 8], for which the Kd at MTOR_h worked out at 525 nM; at PIK3Cβ_h, 31 nM; on PIK3Cδ_h, 891 nM; at PIK3Cγ_h it was 14500 nM; on PIK3Cα_h, 30200 nM. The IC50 in assay [1] (Homo sapiens, PC-3, 1 h) came out at 263 nM; in assay [2] (Homo sapiens, PC-3, 1 h), 204 nM.
Take `Cc1c(Cc2c(CO)nc3c(-c4ncc[nH]4)cc(N4CCOCC4)nn23)cccc1C(F)(F)F` [Compound 20]: the dissociation constant (Kd) at MTOR_h is more than 10000 nM; on PIK3Cβ_h, 2.2 nM; at PIK3Cδ_h, 85 nM; at PIK3Cγ_h, 4790 nM; at PIK3Cα_h, 1700 nM. Moreover, the IC50 in assay [1] (Homo sapiens, PC-3, 1 h) was 33 nM; in assay [2] (Homo sapiens, PC-3, 1 h), approximately 25 nM.
Take `Cc1nc2c(-c3cnc[nH]3)cc(N3CCOCC3)nn2c1Nc1cccc(C(F)(F)F)c1CN1CC(O)C1` [Compound 46]: the Kd was found to be 1230 nM on MTOR_h; 3 nM on PIK3Cβ_h; 11 nM at PIK3Cδ_h; 741 nM at PIK3Cγ_h; 661 nM at PIK3Cα_h. Moreover, the 50% inhibitory concentration (IC50) in assay [1] (Homo sapiens, PC-3, 1 h) stood at 174 nM; in assay [2] (Homo sapiens, PC-3, 1 h) it was 17 nM.
`Cc1c(Cc2c(CO)nc3c(C(N)=O)cc(N4CCOCC4)nn23)cccc1C(F)(F)F` [Compound 15]: the Kd at MTOR_h was more than 30200 nM; at PIK3Cβ_h, 7 nM; on PIK3Cδ_h it was 479 nM; on PIK3Cγ_h, 2000 nM; on PIK3Cα_h it was 1100 nM. In addition, the IC50 in assay [1] (Homo sapiens, PC-3, 1 h) is approximately 91 nM; in assay [2] (Homo sapiens, PC-3, 1 h), approximately 43 nM.
With `Cc1c(Cc2c(CNCCO)nc3c(N)cc(N4CCOCC4)nn23)cccc1C(F)(F)F` [Compound 3], the Kd on MTOR_h was determined as 7940 nM; on PIK3Cβ_h it was 1.1 nM; at PIK3Cδ_h, 105 nM; on PIK3Cγ_h, 15500 nM; on PIK3Cα_h it was 9550 nM. The IC50 is 120 nM in assay [1] (Homo sapiens, PC-3, 1 h) and approximately 71 nM in assay [2] (Homo sapiens, PC-3, 1 h).
With `Cc1nc2c(N)cc(N3CCOCC3)nn2c1Cc1cccc2c1CN(C(C)C)CC2` [Compound 110], the dissociation constant (Kd) is more than 30200 nM on MTOR_h; 513 nM at PIK3Cβ_h; 2380 nM on PIK3Cδ_h; more than 30200 nM at PIK3Cγ_h; more than 30200 nM on PIK3Cα_h. For the same compound, the 50% inhibitory concentration (IC50) in assay [1] (Homo sapiens, PC-3, 1 h) is 324 nM; in assay [2] (Homo sapiens, PC-3, 1 h), 222 nM.
On to `Cc1nc2c(N)cc(N3CCOCC3)nn2c1Nc1cccc(C(F)(F)F)c1CNC(C)CO` (centres unmarked) [Compound 55], for which the dissociation constant Kd at MTOR_h is more than 30200 nM; on PIK3Cβ_h, 0.9 nM; at PIK3Cδ_h, 9 nM; at PIK3Cγ_h, 12600 nM; on PIK3Cα_h, 1120 nM. The IC50 in assay [1] (Homo sapiens, PC-3, 1 h) stood at 10 nM; in assay [2] (Homo sapiens, PC-3, 1 h) it was 7 nM.
For `Cc1nc2c(C(=O)O)cc(N3CCOCC3)nn2c1Nc1ccccc1N1CCOCC1` [Compound 86], the dissociation constant (Kd) was found to be 19500 nM on MTOR_h; 10 nM on PIK3Cβ_h; 117 nM at PIK3Cδ_h; 13200 nM at PIK3Cγ_h; 1780 nM at PIK3Cα_h. Further, the IC50 in assay [1] (Homo sapiens, PC-3, 1 h) was more than 513 nM; in assay [2] (Homo sapiens, PC-3, 1 h), more than 513 nM.
For the compound `Cc1nc2c(C(=O)O)cc(C3=CCOCC3)nn2c1Cc1cccc(C(F)(F)F)c1C` [Compound 29], the equilibrium dissociation constant (Kd) was more than 30200 nM on MTOR_h; 7 nM at PIK3Cβ_h; 200 nM on PIK3Cδ_h; 12300 nM at PIK3Cγ_h; 3390 nM on PIK3Cα_h. For the same compound, the IC50 in assay [1] (Homo sapiens, PC-3, 1 h) is more than 513 nM; in assay [2] (Homo sapiens, PC-3, 1 h), approximately 513 nM.
